Measurements as given in patent US20230115335A1, “PYRAZOLE DERIVATIVES WITH ANTICANCER ACTIVITY” (BOARD OF REGENTS, THE UNIVERSITY OF TEXAS SYSTEM, priority 2021, published 2023).
Read-outs that look alike come from different tables or passages of the source.

Columns and labels:
CEM cell line = experiment: DNS cytotoxicity assay, CEM; type: cell-based, human; settings: Initial Screen, DNS assay, read-out: CEM CC50
Description: […] […] After treatment, images were acquired and analyzed to determine percentages of live/dead cells and their cytotoxicity. […] The Hs-27 non-cancerous human foreskin fibroblast cell line was used for comparison purposes.

[1] = DNS cytotoxicity assay, MCF10A; type: cell-based; settings: human, MCF10A non-cancerous cells, 72 hr incubations, read-out: Cell Line CC50 MCF10A*
Description: (§1) Since the non-adherent (free floating) lymphoma/leukemia cell lines divide faster than the adherent cell lines, they were incubated for a shorter period (48 h) of time with the compound.

MDA-MB231 = experiment: DNS cytotoxicity assay, MDA-MB-231; type: cell-based; settings: Homo sapiens, 72 hr incubations, read-out: Cell Line CC50 MDA-MD-231*
Description: as §1
(§2) Lymphoma/leukemia cell lines, which grow in suspension, were incubated for 48 h with the compounds. […] After treatment, images were acquired and analyzed to determine percentages of live/dead cells and their cytotoxicity. […] The Hs-27 non-cancerous human foreskin fibroblast cell line was used for comparison purposes.

[2] = DNS cytotoxicity assay, HS-27 non-cancerous fibroblast; type: cell-based; settings: human, Hs-27 non-cancerous foreskin fibroblast cells; 72 hr incubations; non-cancerous; read-out: Cell Line CC50 HS-27*
Description: as §1, §2

Jurkat = experiment: DNS cytotoxicity assay, Jurkat; type: cell-based, human; settings: Homo sapiens, Jurkat; Lymphoma-Leukemia; 48 hrs
Description: Using the high throughput Differential Nuclear Staining (DNS) screening assay (Lema et al., Current Cellular Biochemistry 1, 1-14, 2011) 15 pyrazole compounds were synthesized and screened on the human T-cell Acute Lymphoblastic Leukemia CEM cell line (Tables 1 and 2). […] The compounds were synthesized based on a pyrazole backbone structure previously determined to have potent cytotoxic activity (FIG. 5). Several commercial and non-commercial analogues (see Table 3) have been tested and determined that the ones with highest activity have a similar structure circled in FIG. 5. […] SSK-3 has been tested on a few cancer cell lines (see Table 4) and also found to induce programmed cell death via a variety of biochemical assays. […] Since the non-adherent (free floating) lymphoma/leukemia cell lines divide faster than the adherent cell lines, they were incubated for a shorter period (48 h) of time with the compound.
SSK-3 has potent cytotoxic activity against a panel of human cancer cell lines. The cytotoxic activity of SSK-3 was examined by the DNS assay (Lema et al., Current Cellular Biochemistry 1, 1-14, 2011). Lymphoma/leukemia cell lines, which grow in suspension, were incubated for 48 h with the compounds. Since the adherent cells generally divide at a slower rate than the non-adherent cell lines, the MDA-MB231, HCC1419, T47D, COLO205, PANC-1, A-549 adherent cancer cells lines were incubated for 72 h in the presence of the compounds. After treatment, images were acquired and analyzed to determine percentages of live/dead cells and their cytotoxicity. […] The Hs-27 non-cancerous human foreskin fibroblast cell line was used for comparison purposes.

Structure (SMILES) | CC50 (CEM cell line; Homo sapiens, CCRF-CEM) | CC50 at 72 h [1] | CC50 (MDA-MB231) | CC50 at 72 h [2] | also measured
O=C1Nc2ccccc2/C1=N/NC(=O)c1n[nH]c2c1CCC2 [SSK-1] | 12100 ± 1110 nM |  |  |  | 
O=C(N/N=C/c1ccccc1Br)c1n[nH]c2c1CCC2 [P3C.5] |  | 6360 nM | 9880 nM | > 10000 nM | 
O=C(N/N=C/c1ccc(Br)cc1)c1n[nH]c2c1CCC2 [P3C.1] |  | 420 nM | 97 nM | 780 nM | CC50 (Jurkat): 390 nM
Cc1ccc2c(c1)/C(=N/NC(=O)c1n[nH]c3c1CCC3)C(=O)N2 [SSK-4] |  |  |  |  | CC50 (CEM cell line): 5020 ± 780 nM
O=C(N/N=C/c1ccc(OCc2cn(Cc3ccccc3)nn2)cc1)c1n[nH]c2c1CCC2 [SSK-14] | > 10000 nM |  |  |  | 
O=C(N/N=C/c1cccc2ccccc12)c1n[nH]c2c1CCC2 [P3C.2] |  | 530 nM | 1830 nM | 4100 nM | 
COc1ccc(-c2nn(-c3ccccc3)cc2/C=N/NC(=O)c2n[nH]c3c2CCC3)cc1 [SSK-11] | 3140 ± 330 nM |  |  |  | 
Cc1ccc(Cn2cc(COc3ccc(/C=N/NC(=O)c4n[nH]c5c4CCC5)cc3)nn2)cc1 [SSK-13] | > 10000 nM |  |  |  | 
CCN(CC)c1ccc(/C=N/NC(=O)c2n[nH]c3c2CCC3)cc1 [P3C.4] |  | 2460 nM | 2910 nM | > 10000 nM | 
O=C1Nc2ccc(F)cc2/C1=N/NC(=O)c1n[nH]c2c1CCC2 [SSK-2] | > 10000 nM |  |  |  | 
COc1ccc(/C=N/NC(=O)c2n[nH]c3c2CCC3)cc1O [P3C.10] |  | 2460 nM | 2910 nM | > 10000 nM | 
